According to PMC8780768 (Life, 2022):
Where “and” joins values, the source holds several entries; their conditions need not be identical. Equal values may be shown once. Read-outs that look alike come from different tables or passages of the source.

Columns and labels:
Assay type in all cases: cell-based
GABA-ρ1 receptors [1] = target: T1, GABA-ρ1 receptors (Homo sapiens, UniProt P24046); test: Two-electrode voltage-clamp, agonist dose–response at GABA-ρ1 receptors expressed in Xenopus oocytes
T1 construct: expressed in transfected cells; host or cells: Xenopus laevis oocytes injected with cRNA
T1 sequence (P24046 22-479): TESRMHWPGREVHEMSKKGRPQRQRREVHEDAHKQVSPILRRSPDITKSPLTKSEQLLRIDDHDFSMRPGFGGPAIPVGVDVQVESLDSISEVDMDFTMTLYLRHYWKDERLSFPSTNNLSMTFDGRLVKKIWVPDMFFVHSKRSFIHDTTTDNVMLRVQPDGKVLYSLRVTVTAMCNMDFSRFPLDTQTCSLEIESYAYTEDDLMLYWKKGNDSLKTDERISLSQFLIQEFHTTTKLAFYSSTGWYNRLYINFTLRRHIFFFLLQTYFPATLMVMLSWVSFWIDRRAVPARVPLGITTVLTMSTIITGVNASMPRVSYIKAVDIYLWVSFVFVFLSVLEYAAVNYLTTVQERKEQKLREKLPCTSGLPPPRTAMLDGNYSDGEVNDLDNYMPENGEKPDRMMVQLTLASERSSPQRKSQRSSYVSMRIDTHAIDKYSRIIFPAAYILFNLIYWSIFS
Protocol: (§1) Ovary lobes were dissected from female Xenopus laevis (South Africa clawed frogs), which were removed as reported previously, in accordance with the National Health and Medical Research Council (NHMRC) of Australia’s ethical guidelines. This procedure is also approved by the University of Sydney’s animal ethics committee (2013/5915). In brief, the females of Xenopus laevis were anaesthetized using 0.17% 3-aminobenzoic acid ethyl ester with 0.02% NaCl for 10–15 min, and a lobe of the ovary was dissected. The lobes were washed with oocyte releasing buffer 2 (OR2: 82.5 mM NaCl, 5 mM HEPES, 2 mM KCl, 1 mM MgCl2.6H2O pH 7.5) and incubated with collagenase A (2 mg·mL^−1 in OR2, Boehringer Mannheim, Mannheim, Germany) for approximately 2 h to separate oocytes from follicular cells and connective tissue. The released oocytes were washed in ND96 solution (96 mM NaCl, 1 mM MgCl2.6H2O, 2 mM KCl, 5 mM HEPES, and 1.8 mM CaCl2 pH 7.5). Stage V–VI oocytes were collected and injected in the cytoplasm using a 15–20 μm diameter tip micropipette (micropipette puller, Sutter Instruments, Novato, CA, USA) and a Nanoject injector (Drummond Scientific Co., Broomall, PA, USA) set to deliver a total of ~15 ng of cRNA.
(§2) The injected oocytes were placed on an oscillator at 18 °C for 2–6 days in ND96 solution, which contained 0.5 mM theophylline, 2.5 mM pyruvate, 50 μg/mL tetracycline, and 50 μg/mL gentamycin.
(§3) The activity of receptors was tested by recording whole cell currents using the two-electrode voltage clamp technique as previously reported. In brief, fabricated microelectrodes prepared with a micropipette puller (Sutter instruments, Novato, CA, USA), were filled with 3 M KCl solution (0.3–2.3 MΩ). Oocytes were immersed with ND96 buffer in the cell chamber at approximately 5 mL/min rate. The microelectrode impaled cells were clamped at −60 mV (voltage), and the currents elicited in response to the application of ligand/s was recorded using a Power Lab 2/25 analogue–digital data acquisition system (AD Instruments, Sydney, NSW, Australia), a Geneclamp 500 B amplifier (Axon Instrument, Foster City, CA, USA), and Lab Chart version 5.0.2 program (ADInstruments, Sydney, Australia).
(§4) Ligands were applied into the perfusate until a peak response (maximal) was reached. All stock solutions of the ligands were freshly made on the day of experiments. Solutions of ligands dissolved in DMSO were standardized to contain less than 0.8% DMSO in the final perfusate solution to prevent any alteration in the recordings. Perfusates containing these ligands (chemicals) were freshly prepared before each application. The dose–response curves of ligands were obtained by increasing the concentrations of applied agonists on oocytes until the maximum current reached. […] All experiments were conducted using at least two batches of oocytes.
(§5) I = Imax [A]^nH / (EC50^nH + [A]^nH)(1) where I is the current response, referring to a known concentration of agonist; Imax is the maximum current obtained; [A] is the agonist concentration; EC50 is the concentration of agonist/partial agonist at which the current response is half maximal; and nH is the Hill coefficient.

GABA-ρ2 receptors [2] = target: T2, GABA-ρ2 receptors (Homo sapiens, UniProt P28476); test: Two-electrode voltage-clamp, agonist dose–response at GABA-ρ2 receptors expressed in Xenopus oocytes; conditions: for GABA-ρ2 Efficacy: relative to GABA maximal response
T2 construct: expressed in transfected cells; host or cells: Xenopus laevis oocytes injected with cRNA
T2 sequence (P28476 21-465): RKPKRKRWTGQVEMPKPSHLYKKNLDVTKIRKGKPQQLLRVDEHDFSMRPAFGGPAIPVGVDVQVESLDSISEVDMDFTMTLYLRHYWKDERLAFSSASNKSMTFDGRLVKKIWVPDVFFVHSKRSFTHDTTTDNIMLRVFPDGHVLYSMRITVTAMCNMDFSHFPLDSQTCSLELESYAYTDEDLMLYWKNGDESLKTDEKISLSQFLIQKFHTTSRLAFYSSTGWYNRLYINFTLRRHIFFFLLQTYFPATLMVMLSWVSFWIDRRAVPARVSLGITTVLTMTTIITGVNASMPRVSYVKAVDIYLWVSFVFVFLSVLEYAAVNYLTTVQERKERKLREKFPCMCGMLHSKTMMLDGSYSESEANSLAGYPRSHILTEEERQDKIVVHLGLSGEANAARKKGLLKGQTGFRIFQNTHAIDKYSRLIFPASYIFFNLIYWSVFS
Protocol: as §1, §2, §3, §4, §5

GABA-ρ1 receptors [3] = target: T1, GABA-ρ1 receptors; test: Two-electrode voltage-clamp, co-application of ligand with GABA EC50 at GABA-ρ1 receptors (additive/inhibition); conditions: for GABA-ρ1 Additive/Inhibition Hill slope: co-application curve with GABA EC50
Protocol: as §3, §4, §5
(§6) The equations for bell-shaped and biphasic curves are embedded in GraphPad PRISM 8.02.
(§7) A p value < 0.05 was considered statistically significant. […] Significance assigned * if p < 0.05, ** if p < 0.01, *** if p < 0.001 and **** if p < 0.0001.

GABA-ρ2 receptors [4] = target: T2, GABA-ρ2 receptors; test: Two-electrode voltage-clamp, co-application of ligand with GABA EC50 at GABA-ρ2 receptors (additive/inhibition)
Protocol: as §3, §4, §5, §6, §7

[5] = TEVC, Xenopus oocytes, −60 mV, read-out: GABA-ρ1 EC50
[6] = relative to GABA maximal response
[7] = TEVC, Xenopus oocytes, −60 mV, read-out: GABA-ρ2 EC50
[8] = co-applied with GABA EC50, % of GABA EC50 response
[9] = co-application curve with GABA EC50 (800 nM)
[10] = co-applied with GABA EC50 (800 nM), % of GABA EC50 response
[11] = bell-shaped/biphasic co-application curve with GABA EC50

With `O=C(O)C1=CCNCC1` [Isoguvacine, isoguvacine] the EC50 (GABA-ρ1 receptors [1]; [5]) was 205 µM, the “GABA-ρ1 Efficacy” value (GABA-ρ1 receptors [1]; [6]) was 40% and the “efficacy at GABA-ρ1 receptors, fold higher than at GABA-ρ2 receptors” value (GABA-ρ1 receptors [1]; ρ1 versus ρ2) was “two-fold”. The EC50 (GABA-ρ2 receptors [2]; [7]) was 35 µM, the “GABA-ρ2 Efficacy” value (GABA-ρ2 receptors [2]) was 25% and the “potency at GABA-ρ2 receptors, fold higher than at GABA-ρ1 receptors” value (GABA-ρ2 receptors [2]; ρ2 versus ρ1) was “six-fold”. For the same molecule, the “GABA-ρ1 Additive/Inhibition Hill slope” value (GABA-ρ1 receptors [3]) was 0.57 ± 0.25, the “GABA-ρ1 Additive (%)” value (GABA-ρ1 receptors [3]; [8]) was 135% and the “GABA-ρ2 Additive/Inhibition Hill slope” value (GABA-ρ2 receptors [4]; [9]) was 0.37 ± 3.1. The “GABA-ρ2 Additive (%)” value (GABA-ρ2 receptors [4]; [10]) was 120%, the “% of GABA EC50 response when co-applied with 1 µM ligand” value (GABA-ρ2 receptors [4]; oocytes) was 106.8 ± 2.5% and the “% of GABA EC50 response when co-applied with 10 µM ligand” value (GABA-ρ2 receptors [4]; oocytes) was 110 ± 4.3%.

`NCCCC(=O)O` [GABA] showed an EC50 (GABA-ρ2 receptors [2]; TEVC, Xenopus oocytes, read-out: GABA-ρ2 EC50) of 0.8 µM.

`NCCC(=O)O` [β-Alanine, β-alanine] was tested, and the EC50 (GABA-ρ1 receptors [1]) was 400 µM, the “GABA-ρ1 Efficacy” value (GABA-ρ1 receptors [1]; [6]) was 30% and the EC50 (GABA-ρ2 receptors [2]) was 560 µM. For the same molecule, the “GABA-ρ2 Efficacy” value (GABA-ρ2 receptors [2]) was 85%, the “GABA-ρ1 Additive/Inhibition Hill slope” value (GABA-ρ1 receptors [3]) was 1.5 ± 0.8 and the “GABA-ρ1 Additive (%)” value (GABA-ρ1 receptors [3]; [8]) was 120%. The “% of GABA EC50 response when co-applied with 100 µM ligand” value (GABA-ρ2 receptors [4]; GABA-ρ2, GABA EC50 800 nM, ligand 100 µM) was “no significant effect”, the “GABA-ρ2 Additive/Inhibition nH2” value (GABA-ρ2 receptors [4]; [11]) was 1.6 ± 0.36 and the “GABA-ρ2 Additive (%)” value (GABA-ρ2 receptors [4]; [10]) was 120%. For the same molecule, the “% of GABA EC50 response when co-applied with 1 µM ligand” value (GABA-ρ2 receptors [4]; oocytes) was 108.9%.

For `NCCCCC(=O)O` [5-Aminovaleric acid, 5-amino valeric acid], the EC50 (GABA-ρ1 receptors [1]; [5]) was 600 µM, the “GABA-ρ1 Efficacy” value (GABA-ρ1 receptors [1]; [6]) was 3% and the EC50 (GABA-ρ2 receptors [2]; [7]) was 36 µM. The “GABA-ρ2 Efficacy” value (GABA-ρ2 receptors [2]) was 45%, the IC50 (GABA-ρ1 receptors [3]) was 35 µM and the “GABA-ρ1 Additive/Inhibition Hill slope” value (GABA-ρ1 receptors [3]) was 3 ± 0.75. The “GABA-ρ1 Additive (%)” value (GABA-ρ1 receptors [3]; [8]) was 125%, the IC50 (GABA-ρ2 receptors [4]) was 10 µM and the “GABA-ρ2 Additive/Inhibition Hill slope” value (GABA-ρ2 receptors [4]; [9]) was 0.6 ± 0.48. The “GABA-ρ2 Additive (%)” value (GABA-ρ2 receptors [4]; [10]) was 110%, the “% of GABA EC50 response when co-applied with 1 µM ligand” value (GABA-ρ2 receptors [4]; oocytes) was 92% and the “% of GABA EC50 response when co-applied with 100 µM ligand” value (GABA-ρ2 receptors [4]; oocytes) was 51.1%.

For `NCC(=O)O` [Glycine, glycine], the EC50 (GABA-ρ1 receptors [1]; [5]) was roughly 1000 µM, the “GABA-ρ1 Efficacy” value (GABA-ρ1 receptors [1]; [6]) was 25% and the EC50 (GABA-ρ2 receptors [2]; [7]) was roughly 1000 µM. The “GABA-ρ2 Efficacy” value (GABA-ρ2 receptors [2]) was 70%, the “GABA-ρ1 Additive (%)” value (GABA-ρ1 receptors [3]; [8]) was 170% and the “% of GABA EC50 response when co-applied with 1 µM ligand” value (GABA-ρ2 receptors [4]) was “does not show a significant effect”. For the same molecule, the “% of GABA EC50 response when co-applied with 100 µM ligand” value (GABA-ρ2 receptors [4]) was 115.4% and 115%, the “GABA-ρ2 Additive (%)” value (GABA-ρ2 receptors [4]) was 115% and the “GABA-ρ2 Additive/Inhibition nH1” value (GABA-ρ2 receptors [4]; [11]) was 1.8 ± 0.3. The “GABA-ρ2 Additive/Inhibition nH2” value (GABA-ρ2 receptors [4]; [11]) was 1.7 ± 0.5.

In the case of `O=C(O)Cc1c[nH]cn1` [Imidazole-4-acetic acid, imidazole-4-acetic acid], the EC50 (GABA-ρ1 receptors [1]) is reported as 66 µM, the “GABA-ρ1 Efficacy” value (GABA-ρ1 receptors [1]; [6]) is reported as 10% and the EC50 (GABA-ρ2 receptors [2]) is reported as 0.2 µM. For the same molecule, the “GABA-ρ2 Efficacy” value (GABA-ρ2 receptors [2]) was 40%, the “efficacy at GABA-ρ2 receptors, fold higher than at GABA-ρ1 receptors” value (GABA-ρ2 receptors [2]; ρ2 versus ρ1) was 100 fold and the “potency at GABA-ρ2 receptors, fold higher than at GABA-ρ1 receptors” value (GABA-ρ2 receptors [2]; ρ2 versus ρ1) was 4 fold. The IC50 (GABA-ρ1 receptors [3]) was 0.8 µM, the “GABA-ρ1 Additive/Inhibition Hill slope” value (GABA-ρ1 receptors [3]) was 1.3 ± 0.22 and the “GABA-ρ1 Additive (%)” value (GABA-ρ1 receptors [3]; [8]) was 115%. The “GABA-ρ2 Additive (%)” value (GABA-ρ2 receptors [4]) was 110%, the “GABA-ρ2 Additive/Inhibition Hill slope” value (GABA-ρ2 receptors [4]) was 0.87 ± 0.39 and the IC50 (GABA-ρ2 receptors [4]) was 2.4 µM. For the same molecule, the “% of GABA EC50 response when co-applied with 1 µM ligand” value (GABA-ρ2 receptors [4]; oocytes) was 94.2 ± 1.4% and the “% of GABA EC50 response when co-applied with 10 µM ligand” value (GABA-ρ2 receptors [4]; oocytes) was 86.25 ± 3.5%.

With `NCc1cc(=O)[nH]o1` [Muscimol, muscimol] the EC50 (GABA-ρ1 receptors [1]) was 1.25 µM, the “GABA-ρ1 Efficacy” value (GABA-ρ1 receptors [1]; [6]) was 80% and the EC50 (GABA-ρ2 receptors [2]) was 0.65 µM. For the same molecule, the “GABA-ρ2 Efficacy” value (GABA-ρ2 receptors [2]) was 65%, the “GABA-ρ1 Additive (%)” value (GABA-ρ1 receptors [3]; [8]) was 125% and the “GABA-ρ2 Additive (%)” value (GABA-ρ2 receptors [4]) was 112%. The “GABA-ρ2 Additive/Inhibition Hill slope” value (GABA-ρ2 receptors [4]) was 0.14 ± 0.48, the “% of GABA EC50 response when co-applied with 1 µM ligand” value (GABA-ρ2 receptors [4]; oocytes) was 106.9 ± 1.1% and the “% of GABA EC50 response when co-applied with 10 µM ligand” value (GABA-ρ2 receptors [4]; oocytes) was 107.9 ± 3.1%.

In the case of `NC/C=C/C(=O)O` [TACA], the “GABA-ρ1 Efficacy” value (GABA-ρ1 receptors [1]) is reported as 95%, the EC50 (GABA-ρ1 receptors [1]; [5]) is reported as 0.6 µM and the EC50 (GABA-ρ2 receptors [2]; [7]) is reported as 0.45 ± 0.4 µM. The “GABA-ρ2 Efficacy” value (GABA-ρ2 receptors [2]) was 85%, the “GABA-ρ1 Additive (%)” value (GABA-ρ1 receptors [3]) was 190% and the “GABA-ρ1 Additive/Inhibition Hill slope” value (GABA-ρ1 receptors [3]) was 0.9 ± 0.08. For the same molecule, the “GABA-ρ2 Additive/Inhibition Hill slope” value (GABA-ρ2 receptors [4]; [9]) was 0.8 ± 0.46, the “GABA-ρ2 Additive (%)” value (GABA-ρ2 receptors [4]; [10]) was 140% and the “% of GABA EC50 response when co-applied with 1 µM ligand” value (GABA-ρ2 receptors [4]; oocytes) was 118.4%. The “% of GABA EC50 response when co-applied with 10 µM ligand” value (GABA-ρ2 receptors [4]; oocytes) was 137.5%.

`NC/C=C\C(=O)O` [CACA] was tested, and the “GABA-ρ1 Efficacy” value (GABA-ρ1 receptors [1]) was 60%, the EC50 (GABA-ρ1 receptors [1]; [5]) was 93 ± 5.2 µM and the EC50 (GABA-ρ2 receptors [2]; [7]) was 37 ± 12 µM. The “GABA-ρ2 Efficacy” value (GABA-ρ2 receptors [2]) was 60%, the “GABA-ρ1 Additive (%)” value (GABA-ρ1 receptors [3]) was 160% and the “GABA-ρ1 Additive/Inhibition Hill slope” value (GABA-ρ1 receptors [3]) was 0.9 ± 0.44. The “effect on GABA EC50 response when co-applied with 1 mM ligand” value (GABA-ρ2 receptors [4]; GABA-ρ2, GABA EC50, ligand 1 mM, data not shown) was “does not show any significant effect”.
